Measurements reported in ChEMBL document CHEMBL3085684, “Unraveling phosphodiesterase surfaces. Identification of phosphodiesterase 7 allosteric modulation cavities” (Eur J Med Chem, 2013).
Activity calls are given as the source filed them. The calls are words filed in the database; no cut-off is given here.

Molecular target: T1, High affinity 3',5'-cyclic-AMP phosphodiesterase 7A (Homo sapiens, UniProt Q13946)
Assay: Inhibition of human recombinant PDE7A1 using […] after 20 mins by scintillation proximity assay

T1 sequence (Q13946 whole entry): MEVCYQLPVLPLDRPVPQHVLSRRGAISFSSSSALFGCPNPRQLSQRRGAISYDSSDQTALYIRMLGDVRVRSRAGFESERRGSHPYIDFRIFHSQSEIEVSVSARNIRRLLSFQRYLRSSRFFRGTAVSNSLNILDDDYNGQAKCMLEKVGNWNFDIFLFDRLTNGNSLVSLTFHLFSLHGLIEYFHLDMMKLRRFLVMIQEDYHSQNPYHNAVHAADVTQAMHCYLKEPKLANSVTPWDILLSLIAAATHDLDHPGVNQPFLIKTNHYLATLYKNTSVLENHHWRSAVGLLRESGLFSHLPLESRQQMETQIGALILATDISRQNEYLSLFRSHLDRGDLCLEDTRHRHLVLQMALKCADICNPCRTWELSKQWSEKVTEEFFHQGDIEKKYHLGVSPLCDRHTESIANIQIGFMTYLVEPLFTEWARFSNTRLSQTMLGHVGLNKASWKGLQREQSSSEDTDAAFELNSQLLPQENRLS

Row | SMILES | IC50 [µM]
1 | CSc1nc2c(C)cccc2c(=O)n1-c1ccccc1Br | 1.69
2 | Cc1cccc2c(=O)n(-c3c(F)cccc3F)c(=S)[nH]c12 | 9.3
3 | Fc1cccc(F)c1-n1c(=S)[nH]c2ccccc2c1=S | 0.48
4 | CSc1nc2ccccc2c(=S)n1-c1ccccc1Br | 5.33
5 | CSc1nc2ccc(Br)cc2c(=O)n1-c1ccc(F)c(F)c1F | 5.07
6 | CSc1nc2ccccc2c(=S)n1-c1c(F)cccc1F | 3.23
7 | CSc1nc2c(Cl)cccc2c(=O)n1-c1c(F)cccc1F | 15.2
8 | O=c1c2ccccc2[nH]c(=S)n1-c1ccc(F)c(F)c1F | 7.02

Molecular target: T1, High affinity 3',5'-cyclic-AMP phosphodiesterase 7A
Assay: Non-competitive mixed type inhibition of human recombinant PDE7A1 using […] after 20 mins by Lineweaver-Burk plot analysis

Row | SMILES | inhibition
9 | S=c1[nH]c2ccccc2c(=S)n1-c1ccccc1 | Active
10 | O=c1c2ccccc2[nH]c(=S)n1-c1ccccc1 | Active

Molecular target: T1, High affinity 3',5'-cyclic-AMP phosphodiesterase 7A
Assay: Competitive inhibition of human recombinant PDE7A1 using […] after 20 mins by Lineweaver-Burk plot analysis

Row | SMILES | competitive inhibition (Lineweaver-Burk)
11 | CCSc1nc2ccccc2c(=O)n1-c1ccccc1 | Active
12 | CC(C)Cn1c(=O)n(C)c(=O)c2nc[nH]c21 | Active
13 | O=c1c2ccccc2nc(SCc2ccccc2)n1-c1ccccc1 | Active
14 | CSc1nc2ccccc2c(=O)n1-c1c(F)cccc1F | Active
